# Data: patent US5334583A (priority 1982, dated 1994)
# How the values were obtained:
# Assay type in all cases: in vivo
# [1] = tested on: Influenza B/Hong Kong/5/72; experiment: Survival of mice infected intranasally with lethal dose of Influenza B/Hong Kong/5/72; details: intranasal, day -7, 0.1 mg/kg single dose; control 30
# [2] = tested on: Encephalomyocarditis; experiment: Survival of mice infected intranasally with lethal dose of Encephalomyocarditis virus; details: oral, control 30
# [3] = tested on: Herpes Simplex 1/TUP; experiment: Survival of mice infected intranasally with lethal dose of Herpes Simplex 1/TUP; details: intranasal, day -7, 0.1 mg/kg single dose; control 20
# Experimental: Groups of 30, 40 or 50 female MF-2f SPF mice each having a body weight of 14-16 g, or of 12-14 g in the case of tests with herpes simplex 1 viruses, are infected intranasally, under light anaesthesia using a mixture of equal parts of ether, ethanol and chloroform, with lethal doses (approximately LD80-90; number of plaque-forming units [PFU] see Table 1 ) of the undermentioned virus strains in the form of 0.05 ml in each case of a suspension of the viruses.
# At the time indicated below (days) in relation to the day of infection, 10 or 20 of these mice are administered once (single dose) the quantities indicated in Table 1 of the active ingredient, the sodium salt of N-acetylmuramyl-L-alanyl-D-isoglutaminyl-L-alanine-2-(1,2-dipalmitoyl-sn-glycero-3-hydroxyphosphoryloxy)-ethylamide (compound I), in 0.05 ml or 0.1 ml of phosphate-buffered salt solution (PBS) or in 0.2 ml of a 0.05 % by weight solution of sodium carboxymethylcellulose in double-distilled water, by means of intranasal, intravenous or oral administration respectively, in the manner indicated in Table 1 .
# The remainder of the above-mentioned mice, that is 20 or 30, serve as the control, that is to say they either receive no treatment or are given a placebo.
# The intranasal administration of compound I is effected under light anaesthesia using a mixture of equal parts of diethyl ether, ethanol and chloroform.
# [4] = tested on: Herpes Simplex 1/Virtue; experiment: Survival of mice infected intranasally with lethal dose of Herpes Simplex 1/Virtue; details: intranasal, day -7, 0.1 mg/kg single dose; control 40
# [5] = tested on: Herpesvirus hominis 2/Angelotti; experiment: Topical chemotherapy of Herpes genitalis in guinea pigs, local symptoms; details: for Animals [%] with regression of symptoms of ≥ 66% on day 7 / Animals [%] with regression of symptoms of ≥ 66% on day 10 / Animals [%] with regression of symptoms of ≥ 66% on day 12 / Animals [%] with regression of symptoms of ≥ 66% on day 14 / Symptom-free animals [%] on day 10 / Symptom-free animals [%] on day 12 / Symptom-free animals [%] on day 14 / Symptom-free animals [%] on day 21: placebo 0, untreated 0; for Symptom-free animals [%] on day 34: placebo 0, untreated 20
# Text: The number indicated in the following Table of female albino guinea pigs of the Pirbright strain (150-180 g body weight) are infected intravaginally with ~10^4 PFU (plaque-forming units) of Herpesvirus hominis 2/Angelotti, cultivated in HEL (human embryonal lungs) cells, as described in B. Lukas et. al., Arch. ges. Virusforsch. 44, 153-155 (1974) .
# At the time indicated in the following Table (the time difference in days in relation to the day of infection, - [minus] indicating a time before infection) the number N of guinea pigs indicated in Table 2 are treated intravaginally with a single dose of in each case 0.1 ml of a gel containing the concentration of compound I indicated in Table 2.
# The gel without active ingredient has the following composition:
# 2.25 % sodium carboxymethylcellulose (Hercules, USA)
# made up to 100 % with bi-distilled water.
# The effect of the treatment can be seen in Table 2.
# The symptoms occurring in untreated animals are described in B. Lukas et al., Arch. Virol. 49, 1-11 (1975) .
# [6] = tested on: vaccinal virus IHD; experiment: Tail lesions in mice infected intravenously with vaccinal virus IHD; details: 1 mg/kg oral; for Number of tail lesions (mean ± standard deviation) on day +7 / Number of tail lesions (mean ± standard deviation) on day +9: control 4.3 ± 1.9; for Number of tail lesions (mean ± standard deviation) on day +12: control 4.6 ± 1.8; for Number of tail lesions (mean ± standard deviation) on day +10: control 5.9 ± 1.9
# Experimental: Groups of 20 female Tif:MF-2f (SPF) mice each having a body weight of 14-16 g are infected intravenously, under light anaesthesia using a mixture of equal parts of diethyl ether, ethanol and chloroform, with 2×10^3 PFU vaccinal virus IHD in the form of in each case 0.1 ml of a suspension of the virus in beef heart infusion broth.
# 10 of these mice from each of the above-mentioned groups are treated on the fourth or sixth day after infection, that is to say on day +4 or +6 (administration day), with a single oral administration of 1 mg/kg of compound I in 0.2 ml of a 0.05 % by weight aqueous solution of sodium carboxymethylcellulose.
# The remaining 10 mice from each of the above-mentioned groups serve as the controls and receive a placebo.
# On the seventh, ninth, tenth and twelfth day after infection the number of tail lesions in the mice is determined, this being carried out substantially as described by J. J. Boyle, R. F. Haff and R. C. Stewart in Antimicrobial Agents and Chemotherapy, 536-539 (1967), and it should be noted that the first tail lesions can be identified only on the sixth or seventh day.
# [7] = 0.1 ml gel 0.1 % intravaginal, single dose day +4, N 13
# [8] = 0.1 ml gel 0.1 % intravaginal, single dose day -7, N 14
# [9] = 0.1 ml gel 1.0 % intravaginal, single dose day +4, N 14
# [10] = 0.1 ml gel 1.0 % intravaginal, single dose day -7, N 14
# [11] = single administration on day +4
# [12] = single administration on day +6
smiles,measurement,setting,value
"CCCCCCCCCCCCCCCC(=O)OC[C@H](COP(=O)(O)OCCNC(=O)[C@H](C)NC(=O)CC[C@@H](NC(=O)[C@H](C)NC(=O)[C@@H](C)O[C@H]1[C@H](O)[C@@H](CO)OC(O)[C@@H]1NC(C)=O)C(N)=O)OC(=O)CCCCCCCCCCCCCCC (stereo partly drawn) [compound I, N-acetylmuramyl-L-alanyl-D-isoglutaminyl-L-alanine-2-(1,2-dipalmitoyl-sn-glycero-3-hydroxyphosphoryloxy)-ethylamide]",Percentage survivors,[1],80%
same,Percentage survivors,"[2]; day +4, 1 mg/kg single dose",90%
same,Percentage survivors,"[2]; day +4, 10 mg/kg single dose",70%
same,Percentage survivors,"[2]; day +4, 100 mg/kg single dose",100%
same,Percentage survivors,[3],60%
same,Percentage survivors,[4],70%
same,Animals [%] with regression of symptoms of ≥ 66% on day 7,[5]; [7],62%
same,Animals [%] with regression of symptoms of ≥ 66% on day 10,[5]; [7],85%
same,Animals [%] with regression of symptoms of ≥ 66% on day 12,[5]; [7],100%
same,Animals [%] with regression of symptoms of ≥ 66% on day 14,[5]; [7],93%
same,Symptom-free animals [%] on day 10,[5]; [7],70%
same,Symptom-free animals [%] on day 12,[5]; [7],77%
same,Symptom-free animals [%] on day 14,[5]; [7],85%
same,Symptom-free animals [%] on day 21,[5]; [7],100%
same,Symptom-free animals [%] on day 34,[5]; [7],100%
same,Animals [%] with regression of symptoms of ≥ 66% on day 7,[5]; [8],21%
same,Animals [%] with regression of symptoms of ≥ 66% on day 10,[5]; [8],57%
same,Animals [%] with regression of symptoms of ≥ 66% on day 12,[5]; [8],86%
same,Animals [%] with regression of symptoms of ≥ 66% on day 14,[5]; [8],100%
same,Symptom-free animals [%] on day 10,[5]; [8],43%
same,Symptom-free animals [%] on day 12,[5]; [8],64%
same,Symptom-free animals [%] on day 14,[5]; [8],86%
same,Symptom-free animals [%] on day 21,[5]; [8],86%
same,Symptom-free animals [%] on day 34,[5]; [8],100%
same,Animals [%] with regression of symptoms of ≥ 66% on day 7,[5]; [9],79%
same,Animals [%] with regression of symptoms of ≥ 66% on day 10,[5]; [9],79%
same,Animals [%] with regression of symptoms of ≥ 66% on day 12,[5]; [9],86%
same,Animals [%] with regression of symptoms of ≥ 66% on day 14,[5]; [9],93%
same,Symptom-free animals [%] on day 10,[5]; [9],36%
same,Symptom-free animals [%] on day 12,[5]; [9],64%
same,Symptom-free animals [%] on day 14,[5]; [9],79%
same,Symptom-free animals [%] on day 21,[5]; [9],86%
same,Symptom-free animals [%] on day 34,[5]; [9],100%
same,Animals [%] with regression of symptoms of ≥ 66% on day 7,[5]; [10],29%
same,Animals [%] with regression of symptoms of ≥ 66% on day 10,[5]; [10],79%
same,Animals [%] with regression of symptoms of ≥ 66% on day 12,[5]; [10],71%
same,Animals [%] with regression of symptoms of ≥ 66% on day 14,[5]; [10],93%
same,Symptom-free animals [%] on day 10,[5]; [10],21%
same,Symptom-free animals [%] on day 12,[5]; [10],57%
same,Symptom-free animals [%] on day 14,[5]; [10],86%
same,Symptom-free animals [%] on day 21,[5]; [10],86%
same,Symptom-free animals [%] on day 34,[5]; [10],100%
same,Number of tail lesions (mean ± standard deviation) on day +7,[6]; [11],0.9 ± 0.7
same,Number of tail lesions (mean ± standard deviation) on day +9,[6]; [11],0.9 ± 0.9
same,Number of tail lesions (mean ± standard deviation) on day +12,[6]; [11],0.2 ± 0.4
same,Number of tail lesions (mean ± standard deviation) on day +10,[6]; [11],0.9 ± 1.4
same,Number of tail lesions (mean ± standard deviation) on day +7,[6]; [12],1.1 ± 1.4
same,Number of tail lesions (mean ± standard deviation) on day +9,[6]; [12],0.9 ± 1.6
same,Number of tail lesions (mean ± standard deviation) on day +12,[6]; [12],0.5 ± 1.0
same,Number of tail lesions (mean ± standard deviation) on day +10,[6]; [12],0.3 ± 0.7
